“Also recorded” adds a separate entry of the source.
Key:
[1] = system: β-galactosidase from jack beans; experiment: Inhibition of β-galactosidase cleavage of Galβ4GlcNAcβ3Galβ4Glc; assay type: biochemical; settings: 55 mM inhibitor, 100 mU enzyme, 50 mM sodium citrate pH 4.0, 37° C., 8 h; no unreacted substrate without inhibitor
Excerpt: Inhibition of β-galactosidase enzyme by D-galactono-1,4-lactone (Sigma, St Louis, USA). β-galactosidase from jack beans (EC 3.2.1.23, Sigma, St Louis, USA) is used to cleave terminal galactose from model oligosaccharide Galβ4GlcNAcβ3Galβ4Glc (Sigma, St Louis, USA). It is noted that the transition state analog galactosidase inhibitor is active against many galactosidases (Huber and Brockbank, 1987, actual active form is probably D-galactono-1,5-lactone) and that the jack bean β-galactosidase cleaves similarily other type 2 lactosamines such as e.g. Galβ4GlcNAcβ3Galβ4GlcNAcβ3Galβ4Glc, specific conditions are needed to cleave Galβ3GlcNAc-sequences or glycospingolipids. In Reaction 1, 25 nmol of Galβ4GlcNAcβ3Galβ4Glc is incubated with 100 mU of β-galactosidase from jack beans in-45 μl of 50 mM sodium citrate pH 4.0, at 37° C., for 8 h. Reaction 2 has the same composition, but contains additionally 55 mM D-galactono-1,4-lactone and it is incubated under the same condition for 8 h. The major products from Reaction 1 are Gal and GlcNAcβ3Galβ4Glc, while unreacted substrate is generally not observable by HPLC and mass spectrometric analysis, while Reaction 2 contains besides these typically more than 50% of uncleaved Galβ4GlcNAcβ3Galβ4Glc.

Helicobacter pylori [2] = experiment: TLC bacterial overlay assay: binding of 35S-labeled Helicobacter pylori to glycosphingolipids; settings: for Helicobacter pylori binding activity (in words): TLC overlay; for binding frequency for Helicobacter pylori: strain 032, total number of plates about 100; for binding compared between Helicobacter pylori strains: strains 17875, 002 and 032
Helicobacter pylori [3] = settings: human gastrointestinal cell lines (Simon et al., 1999); cited from earlier work
Helicobacter pylori [4] = settings: rhesus monkey (Mysore et al., 2000); cited from earlier work
[5] = molecular target: T1, sialidase from Vibrio cholerae (Vibrio cholerae serotype O1, UniProt P0C6E9); experiment: Inhibition of sialidase cleavage of Neu5Acα3Galβ4Glc; assay type: biochemical; settings: saturating concentrations
T1 construct: purchased Behringwerke, Marburg, Germany
T1 sequence (P0C6E9 25-781): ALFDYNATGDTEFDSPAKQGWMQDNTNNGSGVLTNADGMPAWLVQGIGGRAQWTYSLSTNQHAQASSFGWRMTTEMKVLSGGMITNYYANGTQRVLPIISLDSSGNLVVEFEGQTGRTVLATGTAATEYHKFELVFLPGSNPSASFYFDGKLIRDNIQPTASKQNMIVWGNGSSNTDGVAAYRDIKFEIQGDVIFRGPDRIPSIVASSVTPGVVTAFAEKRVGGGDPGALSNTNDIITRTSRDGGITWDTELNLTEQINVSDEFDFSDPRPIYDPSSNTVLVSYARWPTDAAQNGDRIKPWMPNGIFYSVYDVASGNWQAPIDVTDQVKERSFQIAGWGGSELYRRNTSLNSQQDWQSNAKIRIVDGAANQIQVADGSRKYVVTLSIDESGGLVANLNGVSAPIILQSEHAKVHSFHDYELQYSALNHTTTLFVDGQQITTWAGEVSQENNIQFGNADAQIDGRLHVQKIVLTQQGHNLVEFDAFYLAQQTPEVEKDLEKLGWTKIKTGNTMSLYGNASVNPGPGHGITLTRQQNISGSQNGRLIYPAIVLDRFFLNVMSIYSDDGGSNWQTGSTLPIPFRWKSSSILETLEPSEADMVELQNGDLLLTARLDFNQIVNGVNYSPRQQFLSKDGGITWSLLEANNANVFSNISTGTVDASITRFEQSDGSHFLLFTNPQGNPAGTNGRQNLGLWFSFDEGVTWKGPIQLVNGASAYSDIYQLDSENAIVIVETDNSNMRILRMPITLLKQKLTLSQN

[6] = dilution series, semi-quantitative TLC overlay

Compound | Helicobacter pylori binding activity (in words) (Helicobacter pylori [2]) | also measured
O=C1O[C@@H]([C@H](O)CO)[C@H](O)[C@H]1O [D-galactono-1,4-lactone] |  | uncleaved Galβ4GlcNAcβ3Galβ4Glc [1]: more than 50%
Galβ4GlcβCer [diglycosylceramide] | displayed binding activity | 
GalNAcβ3Galβ4GlcNAcβ3Galβ4Glcβ1Cer [No. 11] | binding was also found | 
CC(=O)N[C@H]1[C@H]([C@H](O)[C@H](O)CO)O[C@@](O[C@H]2[C@@H](O)[C@@H](CO)O[C@@H](O[C@H]3[C@H](O)[C@@H](O)C(O)O[C@@H]3CO)[C@@H]2O)(C(=O)O)C[C@@H]1O (stereo partly shown) [Sialyl-lactose] |  | inhibition of Helicobacter pylori binding to cell lines (Helicobacter pylori [3]): inhibits Helicobacter pylori binding; efficacy in animal model of the infection (Helicobacter pylori [4]): effective
NeuGcα3Galβ4GlcNAcβ3Galβ4GlcNAcβ3Galβ4Glcβ1Cer [No. 27] |  | binding by Helicobacter pylori isolates (Helicobacter pylori [2]; about 60 isolates tested): bound by most Helicobacter pylori isolates
CCCCCCCCCCCCCCCCc1ccc(NC[C@H](O)[C@@H](O)[C@H](O[C@@H]2O[C@H](CO)[C@H](O)[C@H](O[C@@H]3O[C@H](CO)[C@@H](O[C@@H]4O[C@H](CO)[C@H](O)[C@H](O[C@@H]5O[C@H](CO)[C@@H](O)[C@H](O)[C@H]5NC(C)=O)[C@H]4O)[C@H](O)[C@H]3NC(C)=O)[C@H]2O)[C@H](O)CO)cc1 [GlcNAcβ3Galβ4GlcNAcβ3Galβ4Glc(red)-HDA] | observable binding activity | 
CC(=O)N[C@H]1[C@H]([C@H](O)[C@H](O)CO)OC(C(=O)O)=C[C@@H]1O [Neu5Ac2en, 2,3-anhydro-2-deoxy-N-acetylneuraminic acid] |  | inhibition of the enzyme (in words) [5]: very effectively inhibited
GlcNAcβ3Galβ4GlcNAcβ3Galβ4Glcβ1Cer [No. 10] |  | Helicobacter pylori binding activity (in words) (Helicobacter pylori [2]; listed as pentaglycosylceramide): strong activity; also recorded: displayed binding activity; also recorded: highly active; amount giving a positive response on TLC plates (Helicobacter pylori [2]; dilution series, semi-quantitative TLC overlay, mean value from 7 experiments): 0.039 nmol/spot; binding frequency for Helicobacter pylori (Helicobacter pylori [2]): ~90%; binding compared between Helicobacter pylori strains (Helicobacter pylori [2]): similar
Galβ4GlcNAcβ3Galβ4Glcβ1Cer [No. 5] | displayed binding activity | amount in which glycolipid bound Helicobacter pylori (Helicobacter pylori [2]; [6]): ~0.3 nmoles of glycolipid/spot; binding compared between Helicobacter pylori strains (Helicobacter pylori [2]): similar
Galα3Galβ4GlcNAcβ3Galβ4Glcβ1Cer [No. 13] | binding-active | 
NeuAcα3GalNAcβ3Galβ4GlcNAcβ3Galβ4Glcβ1Cer [No. 24] | non-binding | 
maltoheptaose(red)-HDA [maltoheptaose/red)-HDA, reference compound] | totally inactive | 
Galα3(Fucα2)Galβ4GlcNAcβ3Galβ4Glcβ1Cer [No. 23] | non-binding | 
Galβ4GlcNAcβ3Galβ4GlcNAcβ3Galβ4Glcβ1Cer [No. 21] | displayed binding activity | amount in which glycolipid bound Helicobacter pylori (Helicobacter pylori [2]; [6]): ~0.2 nmoles of glycolipid/spot; binding frequency for Helicobacter pylori (Helicobacter pylori [2]): ~90%; binding compared between Helicobacter pylori strains (Helicobacter pylori [2]): similar
GlcNAcβ3Galβ4Glcβ1Cer [No. 1] | inactive | 
GalNAcα3(Fucα2)Galβ4GlcNAcβ3Galβ4Glcβ1Cer [No. 22] | non-binding | 
GalNAcβ3Galα3Galβ4GlcNAcβ3Galβ4Glcβ1Cer [No. 25] | non-binding | 
Galα4Galβ4GlcNAcβ3Galβ4Glcβ1Cer [No. 15] | absence of binding | 
Fucα2Galβ4GlcNAcβ3Galβ4Glcβ1Cer [No. 18] | absence of binding | 
